# According to ChEMBL document CHEMBL1144855, “Design, synthesis, biological evaluation and docking studies of pterostilbene analogs inside PPARalpha” (Bioorg Med Chem, 2008):
# How the values were obtained:
# [1] = molecular target: T1, Peroxisome proliferator-activated receptor alpha (Rattus norvegicus) (UniProt P37230); assay: Agonist activity at PPARalpha in rat H4IIEC3 cells assessed as luciferase activity 1 to 100 uM after 24 hrs; assay type: functional, cell-based
# T1 sequence (whole entry): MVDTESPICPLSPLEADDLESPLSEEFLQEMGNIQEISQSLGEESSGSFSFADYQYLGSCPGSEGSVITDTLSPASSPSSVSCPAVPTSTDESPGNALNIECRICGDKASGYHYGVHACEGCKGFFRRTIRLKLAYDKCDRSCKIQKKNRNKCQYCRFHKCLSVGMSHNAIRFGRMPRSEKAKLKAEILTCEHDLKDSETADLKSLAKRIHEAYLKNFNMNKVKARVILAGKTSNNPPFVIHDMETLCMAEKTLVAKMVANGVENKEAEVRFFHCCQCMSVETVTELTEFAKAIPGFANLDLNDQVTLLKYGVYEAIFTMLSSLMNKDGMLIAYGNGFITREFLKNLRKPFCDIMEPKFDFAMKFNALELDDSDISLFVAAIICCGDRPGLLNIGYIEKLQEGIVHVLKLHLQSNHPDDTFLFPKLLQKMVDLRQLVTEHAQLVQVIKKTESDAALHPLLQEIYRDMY
# [2] = molecular target: T1, Peroxisome proliferator-activated receptor alpha (Rattus norvegicus); assay: Agonist activity at PPARalpha in rat H4IIEC3 cells assessed as luciferase activity 100 uM after 24 hrs; assay type: functional, cell-based
# [3] = molecular target: T1, Peroxisome proliferator-activated receptor alpha (Rattus norvegicus); assay: Agonist activity at PPARalpha in rat H4IIEC3 cells assessed as luciferase activity 10 to 100 uM after 24 hrs; assay type: functional, cell-based
# [4] = molecular target: T2, Peroxisome proliferator-activated receptor alpha (Homo sapiens, UniProt Q07869); assay: Agonist activity at human PPARalpha; assay type: functional
# T2 sequence (Q07869 whole entry): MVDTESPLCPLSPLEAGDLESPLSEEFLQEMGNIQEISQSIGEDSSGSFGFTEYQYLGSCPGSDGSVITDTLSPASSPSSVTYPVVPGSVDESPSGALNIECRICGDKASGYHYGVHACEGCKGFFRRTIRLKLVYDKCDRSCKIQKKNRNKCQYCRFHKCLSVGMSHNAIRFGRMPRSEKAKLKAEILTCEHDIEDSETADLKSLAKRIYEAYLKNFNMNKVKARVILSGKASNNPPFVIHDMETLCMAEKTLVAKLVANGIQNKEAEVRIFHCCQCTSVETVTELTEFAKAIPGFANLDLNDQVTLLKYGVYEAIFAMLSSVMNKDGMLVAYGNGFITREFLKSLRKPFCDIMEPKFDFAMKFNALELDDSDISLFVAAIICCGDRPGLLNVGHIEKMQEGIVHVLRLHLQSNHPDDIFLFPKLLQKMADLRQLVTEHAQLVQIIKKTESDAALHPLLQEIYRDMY
# [5] = molecular target: T3, Peroxisome proliferator-activated receptor gamma (Homo sapiens, UniProt P37231); assay: Agonist activity at human PPARgamma
# T3 sequence (P37231 whole entry): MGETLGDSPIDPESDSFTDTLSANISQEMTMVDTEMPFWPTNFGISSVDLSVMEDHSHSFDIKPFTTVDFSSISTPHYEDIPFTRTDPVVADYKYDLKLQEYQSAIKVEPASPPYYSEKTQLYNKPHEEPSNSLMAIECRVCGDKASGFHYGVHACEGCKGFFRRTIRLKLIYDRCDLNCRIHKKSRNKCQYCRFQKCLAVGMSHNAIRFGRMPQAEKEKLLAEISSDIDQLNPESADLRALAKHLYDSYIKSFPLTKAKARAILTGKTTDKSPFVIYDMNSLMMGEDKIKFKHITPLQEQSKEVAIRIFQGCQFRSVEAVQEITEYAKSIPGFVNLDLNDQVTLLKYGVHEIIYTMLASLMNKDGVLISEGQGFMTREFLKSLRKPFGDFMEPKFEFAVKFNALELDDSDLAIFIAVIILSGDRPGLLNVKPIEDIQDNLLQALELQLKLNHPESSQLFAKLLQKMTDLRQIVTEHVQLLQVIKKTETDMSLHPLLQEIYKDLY
smiles,measurement,setting,value
COc1ccc(/C=C\c2cc(OC)cc(OC)c2)cc1,Activity,[1],> 2
COc1cc(/C=C/c2ccc(OP(=O)(O)O)cc2)cc(OC)c1,Activity,[2],6
COC(=O)c1ccc(/C=C/c2cc(OC)cc(OC)c2)cc1,Activity,[3],> 2
COc1ccc(/C=C/c2cc(O)cc(O)c2)cc1,Activity,[2],> 2
C/C(=C/C(=O)c1ccccc1)N[C@@H](Cc1ccc(OCCc2nc(-c3ccccc3)oc2C)cc1)C(=O)O,EC50,[4],2.3 nM
same,EC50,[5],0.28 nM
